Reference: patent US11279703B2, “Fused pyrimidine compounds as BRD4 and JAK2 dual inhibitors and methods for use thereof” (APTOSE BIOSCIENCES INC., priority 2016, dated 2022)
Where two headings read alike, the source gives them in different places.

Key:
BRD4-BD1 = BRD4-BD1 (Homo sapiens (Human), UniProt O60885); test: AlphaLisa bromodomain binding assay, BRD4-BD1
JAK2 = JAK2 (Homo sapiens (Human), UniProt O60674); test: HTRF kinase assay, JAK2; format: biochemical
Description: A kinase assay with HTRF was used to observe JAK activity and calculate the IC50s of compounds disclosed herein. HTRF is an enzymatic assay used to determine the amount of phosphorylated peptide. FRET (Fluorescence Resonance Energy Transfer) is based on the transfer of energy between two fluorophores—a donor and an acceptor—when in close proximity. Molecular interactions between biomolecules can be assessed by coupling each partner with a fluorescent label and by detecting the level of energy transfer. The amount of phopshorylated peptide can be detected using a combination of a Eu 3+Cryptate labeled anti-phospho residue antibody, SA-XL665 and a biotinylated substrate. The signal is proportional to the concentration of phospho-residues.
Equipment Required • 1. […] Plate centrifuge • 3. Plate shaker • 4. […] Single channel and multi-channel pipettes • 6. Microplate reader (Pherastar)]
Stock and Final Assay Concentrations (FAC) • 1. All reference and test compounds are made at a concentration of 10 mM in DMSO. Compounds are serially diluted in DMSO and a FAC starting from 10 μM to 10 point 3 fold serial dilutions is arrived. For Ruxolitinib the starting FAC is 1 μM. FAC of DMSO is 1%. • 2. Enzyme stock and FAC
• JAK-1: Invtirogen Cat: PR8767C • JAK-2: Invtirogen Cat: PR7820B • JAK-3: Invtirogen Cat: PR7507B • 3. Substrate (synthetic peptide-Biotinylated-N-terminal tag-[…] from Biopeptide) stock and FAC
• Adenosine 5′-triphosphate disodium salt hydrate: Sigma Cat: A26209 • 5. […] Buffers • Base buffer (for 50 ml)
• HTRF buffer: • 50 mM Tris-HCl, pH—7.5 • 100 mM NaCl • 0.1% BSA • 0.05% Tween20 • 0.5 mM EDTA
To a 384 well black-plate: • 1. Add 17 μL of the buffer to each well of the 384-well black plate • 2. […] Add 5 μl of the enzyme to each well of the plate • 4. Add 10 μl of the substrate and ATP mix to all the wells • 5. Cover with plate sealer • 6. […] Incubate at room temperature for 1 hour on shaker • 8. […] Add 37.5 μL of the HTRF mix to these wells. • 9. Incubate the plate at room temperature on shaker for 45 minutes. • 10.
The percent inhibition is calculated in the excel analysis template and the IC50 values are subsequently determined using a sigmoidal dose-response curve (variable slope) using GraphPad Prism® 5 software.

[1] = Table 6, read-out: BRD4(1) IC50

JAK2, sequence (O60674 whole entry): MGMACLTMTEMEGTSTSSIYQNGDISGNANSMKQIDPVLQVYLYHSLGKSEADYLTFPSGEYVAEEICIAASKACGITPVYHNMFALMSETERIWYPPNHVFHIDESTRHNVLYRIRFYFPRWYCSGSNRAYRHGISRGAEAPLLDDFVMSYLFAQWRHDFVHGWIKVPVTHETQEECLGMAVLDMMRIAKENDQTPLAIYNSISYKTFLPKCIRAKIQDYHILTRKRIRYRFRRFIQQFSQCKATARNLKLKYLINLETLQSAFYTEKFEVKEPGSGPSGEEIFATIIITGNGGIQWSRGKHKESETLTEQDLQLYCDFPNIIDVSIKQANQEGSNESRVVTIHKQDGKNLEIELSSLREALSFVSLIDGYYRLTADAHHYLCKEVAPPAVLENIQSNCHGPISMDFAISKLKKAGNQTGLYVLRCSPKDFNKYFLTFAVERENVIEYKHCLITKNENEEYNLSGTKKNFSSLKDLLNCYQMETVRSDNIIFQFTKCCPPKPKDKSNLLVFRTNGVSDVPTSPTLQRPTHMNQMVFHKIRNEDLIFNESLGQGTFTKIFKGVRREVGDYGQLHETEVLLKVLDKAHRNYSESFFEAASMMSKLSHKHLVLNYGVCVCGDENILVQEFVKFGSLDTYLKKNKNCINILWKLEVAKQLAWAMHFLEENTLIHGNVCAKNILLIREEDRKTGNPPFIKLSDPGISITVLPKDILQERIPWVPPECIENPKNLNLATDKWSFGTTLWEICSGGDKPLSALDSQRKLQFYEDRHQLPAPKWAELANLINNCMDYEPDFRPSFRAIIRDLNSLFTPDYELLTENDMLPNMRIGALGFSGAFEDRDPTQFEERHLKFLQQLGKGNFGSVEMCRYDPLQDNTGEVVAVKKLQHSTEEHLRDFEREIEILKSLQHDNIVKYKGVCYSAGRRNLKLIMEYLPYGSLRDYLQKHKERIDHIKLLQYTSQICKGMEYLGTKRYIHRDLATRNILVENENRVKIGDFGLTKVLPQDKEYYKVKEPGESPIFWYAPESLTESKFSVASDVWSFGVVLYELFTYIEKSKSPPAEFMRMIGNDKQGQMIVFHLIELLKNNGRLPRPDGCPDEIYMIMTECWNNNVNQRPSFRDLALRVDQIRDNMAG

| Structure (SMILES) | IC50 (BRD4-BD1; Table 5, read-out: BRD4 IC50) | IC50 (JAK2; Table 5) | IC50 (BRD4-BD1; [1]) | IC50 (JAK2; Table 6) |
| --- | --- | --- | --- | --- |
| CN(C)C1CCN(c2ccc(Nc3ncc4ccn(-c5cccc(NS(=O)(=O)C(C)(C)C)c5)c4n3)cc2F)CC1 [drawing 76] | 131 nM | 3 nM | – | – |
| CN(C)C1CCN(c2ccc(Nc3ncc4scc(-c5cccc(NS(=O)(=O)C(C)(C)C)c5)c4n3)cc2)CC1 | – | – | 368 nM | 3 nM |
| CN(C)C1CCN(c2ccc(Nc3ncc4ccn(-c5ccc(F)c(NS(=O)(=O)C6CC6)c5)c4n3)cc2)CC1 | – | – | 1010 nM | 10 nM |
| CC(C)(C)S(=O)(=O)Nc1cccc(-n2ccc3cnc(Nc4ccc(NCCN)cc4)nc32)c1 | – | – | 682 nM | 20 nM |
| CNC1CCN(c2ccc(Nc3ncc4scc(-c5ccc(F)c(NS(=O)(=O)C(C)(C)C)c5)c4n3)cc2F)CC1 [drawing 459] | – | – | 308 nM | 21 nM |
| CN(C)C1CCN(c2ccc(Nc3ncc4ccn(-c5ccc(F)c(NS(=O)(=O)C(C)(C)C)c5)c4n3)cc2F)CC1 [drawing 397] | – | – | 63 nM | 27 nM |
| NC(=O)N1CCN(c2ccc(Nc3ncc4ccn(-c5cccc(NS(=O)(=O)C6CC6)c5)c4n3)cc2)CC1 | – | – | 10000 nM | 11 nM |
| CN1CCN(c2ccc(Nc3ncc4ccn(-c5ccc(C#N)c(NS(=O)(=O)C6CC6)c5)c4n3)cc2)CC1 | – | – | 1800 nM | 78 nM |
| CN(C)C1CCN(c2ccc(Nc3ncc4ccn(-c5ccc(F)c(NS(=O)(=O)C(C)(C)C)c5)c4n3)cc2F)CC1 [drawing 373] | – | – | 153 nM | 27 nM |
| CN(C)CC1CCN(c2ccc(Nc3ncc4ccn(-c5ccc(F)c(NS(=O)(=O)C(C)(C)C)c5)c4n3)cc2F)CC1 | – | – | 143 nM | 83 nM |
| CN1CCC(NC(=O)c2ccc(Nc3ncc4ccn(-c5ccc(F)c(NS(=O)(=O)C(C)(C)C)c5)c4n3)cc2F)CC1 [drawing 335] | – | – | 94 nM | 360000 nM |
| CC(C)(C)S(=O)(=O)Nc1cccc(-n2ccc3cnc(NC4CCNCC4)nc32)c1 | – | – | 10000 nM | 10000 nM |
| CN(C)C1CCN(c2ccc(Nc3ncc4ccn(-c5ccc(F)c(NS(=O)(=O)C(C)(C)C)c5)c4n3)cc2F)CC1 [drawing 408] | – | – | 63 nM | 43 nM |
| CN(C)C1CCN2c3ccc(Nc4ncc5ccn(-c6cccc(NS(=O)(=O)C(C)(C)C)c6)c5n4)cc3CC2C1 (stereo not drawn) [drawing 444] | – | – | 268 nM | 8 nM |
| CC(C)(C)S(=O)(=O)Nc1cc(-n2ccc3cnc(Nc4ccc(N5CCC(C(=O)O)CC5)c(F)c4)nc32)ccc1F | – | – | 1100 nM | 120 nM |
| CN1CCC(NC(=O)c2ccc(Nc3ncc4ccn(-c5cccc(NS(=O)(=O)C6CC6)c5)c4n3)cc2F)CC1 | – | – | 856 nM | 13 nM |
| CN1CCN(C(=O)Cc2ccc(Nc3ncc4ccn(-c5cccc(NS(=O)(=O)C6CC6)c5)c4n3)cc2)CC1 | – | – | 4010 nM | 182 nM |
| CN(C)C1CCN(c2ccc(Nc3ncc4ccn(-c5cccc(NS(=O)(=O)C(C)(C)C)c5)c4n3)cc2)CC1 [drawing 409] | – | – | 229 nM | 6.5 nM |
| CC(C)(C)S(=O)(=O)Nc1cccc(Nc2nc(NC3CCNCC3)nc3sccc23)c1 [drawing 406] | – | – | 1200 nM | 10000 nM |

| Structure (SMILES) | IC50 (BRD4-BD1; Table 5, read-out: BRD4 IC50) | IC50 (JAK2; Table 5) | IC50 (BRD4-BD1; [1]) | IC50 (JAK2; Table 6) |
| --- | --- | --- | --- | --- |
| CC(=O)N1CCN(c2ccc(Nc3ncc4ccn(-c5cccc(NS(=O)(=O)C6CC6)c5)c4n3)cc2)CC1 | – | – | 5730 nM | 24900 nM |
| CN(C)C1CCN(c2ccc(Nc3ncc4ccn(-c5cccc(NS(=O)(=O)C(C)(C)C)c5)c4n3)cc2)C1 (stereo not drawn) | – | – | 854 nM | 37 nM |
| CN1CCN2c3c(F)cc(Nc4ncc5ccn(-c6ccc(F)c(NS(=O)(=O)C(C)(C)C)c6)c5n4)cc3CC2C1 (stereo not drawn) | – | – | 383 nM | 56 nM |
| CN1CCC(Nc2nc(Nc3cccc(NS(=O)(=O)C(C)(C)C)c3)c3cc[nH]c3n2)CC1 | – | – | 7080 nM | 10000 nM |
| CC(C)(C)S(=O)(=O)Nc1cccc(-n2ccc3cnc(Nc4ccc(CC(=O)NCCN)cc4)nc32)c1 | – | – | 406 nM | 64 nM |
| CN(C)C1CCN(c2ccc(Nc3ncc4ccn(-c5cccc(NS(=O)(=O)C(C)(C)C)c5)c4n3)cc2)CC1 [drawing 368] | – | – | 190 nM | 5 nM |
| Cc1cnc(Nc2ccc(N3CCN(C)CC3)cc2)nc1-n1ccc2c1CCNC2=O | – | – | 5720 nM | 5920 nM |
| CC1(C)CNCCC1Nc1cc(Nc2cccc(NS(=O)(=O)C(C)(C)C)c2)c2ccsc2c1 (stereo not drawn) | – | – | 2830 nM | 10000 nM |
| CN(C)C1CCN(c2ccc(Nc3ncc4ccn(-c5cccc(NS(=O)(=O)C6(C)CC6)c5)c4n3)cc2)CC1 | – | – | 636 nM | 6 nM |
| CNCCNc1ccc(Nc2ncc3ccn(-c4cccc(NS(=O)(=O)C(C)(C)C)c4)c3n2)cc1 | – | – | 407 nM | 24 nM |
| CN1CCN2c3c(F)cc(Nc4ncc5ccn(-c6cccc(NS(=O)(=O)C(C)(C)C)c6)c5n4)cc3CC2C1 (stereo not drawn) | – | – | 571 nM | 14 nM |
| CN1CCN(c2ccc(Nc3ncc4ccn(-c5cccc(NS(=O)(=O)C6CC6)c5)c4n3)cc2)CC1 [drawing 74] | 355 nM | 2.5 nM | – | – |
| COc1nc(NC2CCNCC2)nc2c1ccn2-c1cccc(NS(=O)(=O)C(C)(C)C)c1 | – | – | 122 nM | 3010 nM |
| CN1CCN(c2ccc(Nc3ncc4ccn(-c5ccc(F)c(NS(=O)(=O)C6CC6)c5)c4n3)cc2)CC1 | – | – | 1490 nM | 15.3 nM |
| CN1CCC(Nc2nc(Nc3ccc4c(c3)N(S(=O)(=O)C(C)(C)C)CC4)c3ccsc3n2)CC1 [drawing 407] | – | – | 315 nM | 10000 nM |
| CN1CCC(NC(=O)c2ccc(Nc3ncc4ccn(-c5cccc(NS(=O)(=O)C6CC6)c5)c4n3)cc2)CC1 | – | – | 1900 nM | 44 nM |
| CC(C)(C)S(=O)(=O)Nc1cc(-n2ccc3cnc(Nc4ccc(C5CCNCC5)cc4)nc32)ccc1F | – | – | 475 nM | 1600 nM |
| O=C(NC1CCNCC1)c1ccc(Nc2ncc3ccn(-c4cccc(NS(=O)(=O)C5CC5)c4)c3n2)cc1 | – | – | 2100 nM | 40 nM |
| CCC1(S(=O)(=O)Nc2cccc(-n3ccc4cnc(Nc5ccc(N6CCC(N(C)C)CC6)cc5)nc43)c2)CC1 | – | – | 1400 nM | 4.7 nM |

More lines, now with the values ahead:

| IC50 (BRD4-BD1; Table 5, read-out: BRD4 IC50) | IC50 (JAK2; Table 5) | IC50 (BRD4-BD1; [1]) | IC50 (JAK2; Table 6) | Structure (SMILES) |
| --- | --- | --- | --- | --- |
| – | – | 316 nM | 9.3 nM | Cc1cnc(Nc2ccc(N3CCN(C)CC3)cc2)nc1Nc1cccc(NS(=O)(=O)C(C)(C)C)c1 [drawing 375] |
| – | – | 10000 nM | 0.7 nM | CN1CCN(c2ccc(Nc3ncc4ccn(-c5ccc(NS(=O)(=O)C(C)(C)C)cc5)c4n3)cc2)CC1 [drawing 362] |
| – | – | 221 nM | 7 nM | Cc1cnc(Nc2ccc(N3CCN(C)CC3)cc2)nc1Nc1cccc(NS(=O)(=O)C(C)(C)C)c1 [drawing 226] |
| – | – | 10000 nM | 8 nM | CN1CCN(c2ccc(Nc3ncc4ccn(-c5cccc6c5CCN6S(=O)(=O)C(C)(C)C)c4n3)cc2)CC1 |
| – | – | 5530 nM | 24.4 nM | CC(C)(C)S(=O)(=O)Nc1cccc(-n2ccc3cnc(Nc4ccc(N5CCOCC5)cc4)nc32)c1 |
| – | – | 155 nM | 7 nM | Cc1cnc(Nc2ccc(N3CCN(C)CC3)cc2)nc1Nc1cccc(NS(=O)(=O)C(C)(C)C)c1 [drawing 396] |
| – | – | 133 nM | 8 nM | Cc1cnc(Nc2ccc(N3CCN(C)CC3)cc2)nc1Nc1cccc(NS(=O)(=O)C(C)(C)C)c1 [drawing 231] |
| – | – | 3200 nM | 19 nM | CNC(=O)N1CCN(c2ccc(Nc3ncc4ccn(-c5cccc(NS(=O)(=O)C(C)(C)C)c5)c4n3)cc2)CC1 |
| – | – | 10000 nM | 10000 nM | CC(C)(C)S(=O)(=O)Nc1cccc(Nc2nc(NC3CCN(c4ccccc4)CC3)nc3sccc23)c1 |
| – | – | 10000 nM | 2400 nM | CN1CCN(c2ccc(Nc3ncc4ccn(-c5ccccc5NS(=O)(=O)C(C)(C)C)c4n3)cc2)CC1 |
| – | – | 5160 nM | 10000 nM | COc1nc(Nc2ccc(N3CCN(C)CC3)cc2)nc2c1ccn2-c1cccc(NS(=O)(=O)C(C)(C)C)c1 |
| – | – | 2680 nM | 10000 nM | CN1CCN(c2ccc(Nc3nc(Nc4ccc(Cl)c(NS(=O)(=O)C(C)(C)C)c4)c4sccc4n3)cc2)CC1 |
| – | – | 235 nM | 43 nM | Cc1cnc(Nc2ccc(N3CCN(C)CC3)cc2)nc1Nc1cccc(NS(=O)(=O)C(C)(C)C)c1 [drawing 339] |
| – | – | 272 nM | 90 nM | COc1cc(Nc2ncc3ccn(-c4ccc(F)c(NS(=O)(=O)C(C)(C)C)c4)c3n2)ccc1N1CCN(C)CC1 |
| – | – | 900 nM | 10000 nM | CN1CCC(Nc2nc(Nc3ccc(Cl)c(NS(=O)(=O)C(C)(C)C)c3)c3sccc3n2)CC1 |
| – | – | 1700 nM | 74 nM | CN1CCN(c2cccc(Nc3ncc4ccn(-c5cccc(NS(=O)(=O)C(C)(C)C)c5)c4n3)c2)CC1 |
